Data as given in patent US12612424B2, “HPK1 inhibitors and uses thereof” (Regor Pharmaceuticals, Inc., priority 2019, dated 2026).
Like-named read-outs stand apart in the source and are kept apart here.

Target: T1, JAK3 (Homo sapiens, UniProt P52333)
T1 construct: purchased Thermo fisher PV3855
Experiment: JAK3 biochemical assay (ADP-GLO Kinase Assay)
Conditions: for JAKs/HPK1 IC50 Ratio, B* / JAKs/HPK1 IC50 Ratio, N*: ratio of JAK3 IC50 to HPK1 IC50; for JAKs/HPK1 IC50 Ratio, B*: first testing facility; for JAKs/HPK1 IC50 Ratio, N*: second testing facility
Procedure, shortened: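 Luminescent ADP-Glo readout after a 60 min, 25 °C reaction of JAK3 (0.78 ng) on Poly(E4Y1) (0.2 μg/μL) at 4 μM ATP, Tris pH 7.5 buffer with MgCl2, BSA and DTT. Compounds tested 10 μM down to 0.508 nM in 3-fold steps; % inhibition normalised to DMSO and reference-compound controls, IC50 from three-parameter fit.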

[1] = B*: testing performed in a first testing facility, read-out: JAK3 IC50 (nM) Relative, B*
[2] = N*: testing performed in a second testing facility, read-out: JAK3 IC50 (nM) Relative, N*

T1 sequence (P52333 781-1124 limits assumed): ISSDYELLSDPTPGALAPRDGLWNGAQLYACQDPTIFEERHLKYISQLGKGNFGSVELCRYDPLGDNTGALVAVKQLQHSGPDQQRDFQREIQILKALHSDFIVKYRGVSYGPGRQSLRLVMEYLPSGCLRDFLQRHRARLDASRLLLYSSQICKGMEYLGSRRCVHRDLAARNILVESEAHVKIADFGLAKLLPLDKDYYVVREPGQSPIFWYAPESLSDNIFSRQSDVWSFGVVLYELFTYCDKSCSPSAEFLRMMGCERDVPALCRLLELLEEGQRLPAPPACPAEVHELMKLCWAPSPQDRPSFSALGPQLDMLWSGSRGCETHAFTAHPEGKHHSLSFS

Row | Structure (SMILES) | IC50 [1] | IC50 [2] | JAKs/HPK1 IC50 Ratio, B* | JAKs/HPK1 IC50 Ratio, N*
1 | COc1cc2c(cc1Nc1ncc(Cl)c(-n3cc(P(C)(C)=O)c4ccccc43)n1)CN(C)CC2 [Example 1, (1-(5-Chloro-2-((6-methoxy-2-methyl-1,2,3,4-tetrahydroisoquinolin-7-yl)amino)pyrimidin-4-yl)-1H-indol-3-yl)dimethylphosphine oxide] | > 1000 nM | > 1000 nM | 285 | >558
2 | COc1nc2c(cc1Nc1ncc(Cl)c(N3CCc4ccccc43)n1)CN(C)CC2 [Example 19, N-(5-chloro-4-(indolin-1-yl)pyrimidin-2-yl)-2-methoxy-6-methyl-5,6,7,8-tetrahydro-1,6-naphthyridin-3-amine] | 500 to 1000 nM | 100 to 500 nM | – | –
3 | COc1cc2c(cc1Nc1ncc(Cl)c(N3CCc4cc(F)ccc43)n1)CN(C)CC2 [Example 20, N-(5-chloro-4-(5-fluoroindolin-1-yl)pyrimidin-2-yl)-6-methoxy-2-methyl-1,2,3,4-tetrahydroisoquinolin-7-amine] | 100 to 500 nM | – | 88 | –
4 | COc1cc2c(cc1Nc1ncc(Cl)c(N3CCc4ccc(F)cc43)n1)CN(C)CC2 [Example 21, N-(5-chloro-4-(6-fluoroindolin-1-yl)pyrimidin-2-yl)-6-methoxy-2-methyl-1,2,3,4-tetrahydroisoquinolin-7-amine] | > 1000 nM | – | 280 | –
5 | COc1cc2c(cc1Nc1ncc(Cl)c(N3CCc4ccccc43)n1)CN(C(C)C)CC2 [Example 22, N-(5-chloro-4-(indolin-1-yl)pyrimidin-2-yl)-2-isopropyl-6-methoxy-1,2,3,4-tetrahydroisoquinolin-7-amine] | > 1000 nM | – | 223 | –
6 | COc1cc2c(cc1Nc1ncc(Cl)c(N3CCc4ccccc43)n1)CNCC2 [Example 23, N-(5-chloro-4-(indolin-1-yl)pyrimidin-2-yl)-6-methoxy-1,2,3,4-tetrahydroisoquinolin-7-amine] | 100 to 500 nM | – | 59 | –
7 | COc1cc2c(cc1Nc1ncc(Cl)c(-n3ncc4ccccc43)n1)CN(C)CC2 [Example 24, N-(5-Chloro-4-(1H-indazol-1-yl)pyrimidin-2-yl)-6-methoxy-2-methyl-1,2,3,4-tetrahydroisoquinolin-7-amine] | > 1000 nM | – | 79 | –
8 | COc1cc2c(cc1Nc1ncc(Cl)c(N3CC(C)(C)c4ccccc43)n1)CN(C)CC2 [Example 25, N-(5-Chloro-4-(3,3-dimethylindolin-1-yl)pyrimidin-2-yl)-6-methoxy-2-methyl-1,2,3,4-tetrahydroisoquinolin-7-amine] | 100 to 500 nM | – | 218 | –
9 | COc1nc2c(cc1Nc1ncc(Cl)c(N3CCc4ncccc43)n1)CN(C)CC2 [Example 29, N-(5-Chloro-4-(2,3-dihydro-1H-pyrrolo[3,2-b]pyridin-1-yl)pyrimidin-2-yl)-2-methoxy-6-methyl-5,6,7,8-tetrahydro-1,6-naphthyridin-3-amine] | 500 to 1000 nM | 100 to 500 nM | 223 | 286
10 | COc1cc2c(cc1Nc1ncc(Cl)c(N3CC(C(=O)O)c4ccccc43)n1)CN(C)CC2 (stereo not shown) [Example 32, 1-(5-Chloro-2-((6-methoxy-2-methyl-1,2,3,4-tetrahydroisoquinolin-7-yl)amino)pyrimidin-4-yl)indoline-3-carboxylic acid] | ≤ 100 nM | – | 90 | –
11 | COc1cc2c(cc1Nc1ncc(Cl)c(N3CC(C(N)=O)c4ccccc43)n1)CN(C)CC2 (stereo not shown) [Example 33, 1-(5-Chloro-2-((6-methoxy-2-methyl-1,2,3,4-tetrahydroisoquinolin-7-yl)amino)pyrimidin-4-yl)indoline-3-carboxamide] | ≤ 100 nM | – | 140 | –
12 | COc1cc2c(cc1Nc1ncc(Cl)c(-n3cc(C(N)=O)c4ccccc43)n1)CN(C)CC2 [Example 34] | 500 to 1000 nM | – | 101 | –
13 | COc1cc2c(cc1Nc1ncc(Cl)c(-n3cc(C(=O)O)c4ccccc43)n1)CN(C)CC2 [Example 35] | 100 to 500 nM | – | 78 | –
14 | COc1cc2c(cc1Nc1ncc3ccn(-c4ccccc4)c3n1)CN(C)CC2 [Example 36, 6-methoxy-2-methyl-N-(7-phenyl-7H-pyrrolo[2,3-d]pyrimidin-2-yl)-1,2,3,4-tetrahydroisoquinolin-7-amine] | – | > 1000 nM | – | 287
15 | COc1cc2c(cc1Nc1ncc3ccn(-c4ccccn4)c3n1)CN(C)CC2 [Example 37, 6-Methoxy-2-methyl-N-(7-(pyridin-2-yl)-7H-pyrrolo[2,3-d]pyrimidin-2-yl)-1,2,3,4-tetrahydroisoquinolin-7-amine] | – | > 1000 nM | – | 608
